# Source: US20220313719A1, “METHODS OF TREATING DISEASES ASSOCIATED WITH CHANGES IN PLATELET COUNTS USING PROTEIN KINASE A ACTIVATOR AND INHIBITOR” (Soochow university, priority 2017, published 2022)
# What was measured:
# platelets = assay: Anti-platelet antibody R300-induced platelet clearance (ITP mouse model); format: in vivo, ICR mice; settings: for platelet counts versus NS group at 30 min: injection 10 min before R300 (0.1 μg/g), PGE2 20 ng/ml, cAMP 12 μg/ml, P<0.05
# Experimental: After 10 min, the anti-platelet antibody R300 (0.2 μg/kg) was intraperitoneally injected into the mice, and the whole blood was collected from the orbital vein at different time points. The platelets were counted by a Sysmex XP-100 blood analyzer, 6 mice were used per group, and the results were expressed as mean±standard deviation (FIG. 12C).
# 12 ICR mice were divided into two groups with 6 mice in each group. The 6 mice in the experimental group were injected with milrinone (1 mg/kg), and the 6 mice in the control group were injected with normal saline (NS). 10 min after the mice were injected with the milrinone (1 mg/kg) (or NS) in the tail vein, the mice were intraperitoneally injected with the R300 antibody (0.1 mg/kg). Blood sampling and counting were then carried out at each time point.
# First, the mice were sampled for blood as a reference value. Then the control group and the test group were injected with 0.9% NS and PGE2 (20 ng/ml), respectively. After 10 min, R300 (0.1 μg/g) was injected. Blood sampling and counting were then carried out at 30 min, 2 h, 4 h, 6 h, and 24 h.
# First, the mice were sampled for blood as a reference value. Then the control group and the test group were injected with 0.9% NS and cAMP (12 μg/ml), respectively. After 10 min, R300 (0.1 μg/g) was injected. Blood sampling and counting were then carried out at 30 min, 2 h, 4 h, 6 h, and 24 h.
# First, the mice were sampled for blood as a reference value. Then the control group and the test group were injected with 0.9% NS and aminophylline (0.24 mmol/L), respectively. After 10 min, R300 (0.1 μg/g) was injected. Then blood sampling and counting were carried out at 30 min, 2 h, 4 h, 6 h, and 24 h (FIG. 20).
# washed platelets [1] = assay: Fasudil platelet apoptosis (ΔΨm and PS exposure) with thrombin; format: cell-based, human; settings: 10 min room temperature, then thrombin 0.1 U/ml 30 min 37° C.
# Experimental: Washed platelets (3×10^8/mL) were incubated with different Fasudil or negative control (normal saline) for 10 min at room temperature. Thereafter, except the negative control, thrombin (0.1 U/ml) was added to each group, and incubation was carried out for 30 min at 37° C. Platelet ΔΨm was measured using the lipophilic cationic dye JC-1. JC-1 with a final concentration of 2 μg/ml was added to the treated platelets, and the platelets were incubated at 37° C. for 5 min in the dark, and detected by using the flow cytometer. […] The JC-1 monomer (λex 514 nm, λem 529 nm) and the polymer (λex 585 nm, λem 590 nm) were determined by calculating the proportion of flow red fluorescence (JC-1 polymer) or green fluorescence (JC-1 monomer) (FIG. 22).
# Washed platelets (3×10^8/mL) were incubated with different Fasudil or negative control (normal saline) for 10 min at room temperature. Thereafter, except the negative control, thrombin (0.1 U/ml) was added to each group, and incubation was carried out for 30 min at 37° C. After that, Annexin V buffer, treated platelets, and Annexin V-FITC in a ratio of 50:10:1 were incubated for 15 min at room temperature in the dark, and detected by using the flow cytometer (FIG. 22).
# washed platelets [2] = assay: Mitochondrial membrane potential (ΔΨm) detection with JC-1 by flow cytometer; format: cell-based, human
# Experimental: When washed platelets were prepared, venous blood from healthy volunteers was anticoagulated with ACD (2.5% sodium citrate, 2.0% glucose, and 1.5% citric acid) at 1:7, platelet-rich plasma (PRP) was obtained by centrifugation at 1300 rpm for 20 min, the PRP was centrifuged at 1500 g for 2 min, and the supernatant was discarded. The precipitated platelets were suspended, centrifuged and washed with CGS buffer (0.123 M sodium chloride, 0.033 M glucose, 0.013 M sodium citrate, pH 6.5). […] The platelets were counted by a counter. […]
# Washed platelets (3×10^8/mL) were incubated with different concentrations of H89 (12.5 μM, 25 μM, 37.5 μM and 50 μM) or negative control (DMSO) for 10 min at room temperature, and then platelet ΔΨm was determined using the lipophilic cationic dye JC-1. JC-1 with a final concentration of 2 μg/ml was added to the treated platelets, and the platelets were incubated at 37° C. for 20 min in the dark, and detected by using a flow cytometer. […] The JC-1 monomer (λex 514 nm, λem 529 nm) and the polymer (λex 585 nm, λem 590 nm) were determined by calculating the proportion of flow red fluorescence (JC-1 polymer) or green fluorescence (JC-1 monomer). […]
# washed platelets [3] = assay: Scanning electron microscopy of platelet morphology; format: cell-based, human; settings: 22° C., 160 min
# Experimental: The washed platelets were fixed with 2.5% […] at 4° C. overnight. The washed platelets were sent to a scanning electron microscope sample room for sample preparation. Morphological analysis of the platelets was carried out by the scanning electron microscope (Japan Hitachi, 5-4700). Five different fields of view were selected for observation and photographing.
# (§1) Different concentrations of H89 (0, 12.5, 25, 37.5, and 50 μM) were applied to washed platelets at 22° C. for 160 min, and mitochondrial transmembrane potential depolarization and PS exposure of platelets were detected by using the flow cytometer. The experiments were repeated four times. The washed platelets were pretreated with different concentrations of H89 at 22° C. for 30 min. At the same time, DMSO and A23187 treated negative control group and positive control group platelets were established. Caspase-3, gelsolin protein expression and caspase-3 activity in platelets were detected by Western blot. The FITC-labeled anti-CD41 antibody was mixed with the pre-treated platelets at a ratio of 1:10, and incubated at room temperature for 10 min in the dark. Analyzing the platelet size scatter plot, the decrease in the CD41 positive cell count represents a decrease in the platelet count. […]
# washed platelets [4] = assay: Platelet shrinkage experiment (FSC of GPIIb/IIIa positive platelets); format: cell-based, human
# Experimental: Washed platelets were incubated with different concentrations of H89 (12.5 μM, 25 μM, 37.5 μM and 50 μM) or negative control (DMSO) at room temperature for 10 min. The platelets and the SZ21 antibody were then incubated for 30 min at room temperature. The platelets were centrifuged, resuspended with the FITC-labeled goat-anti-mouse antibody, and incubated for 30 min at room temperature in the dark. The platelets were collected by using a flow cytometer, and platelet scatter plots collected by FSC-FL1 were used to analyze the platelets. The degree of shrinkage of the platelets was evaluated by analyzing the change in FSC and evaluating the degree of FSC reduction in GPIIb/IIIa positive cells. A23187 was used as a positive control. DMSO was used as a negative control.
# as §1, with “blot.” for “blot. The FITC-labeled anti-CD41 antibody was mixed with the pre-treated platelets at a ratio of 1:10, and incubated at room temperature for 10 min in the dark. Analyzing the platelet size scatter plot, the decrease in the CD41 positive cell count represents a decrease in the platelet count.”
# BAD position 155 = assay: Western blot / co-immunoprecipitation of BAD Ser155 phosphorylation and Bel-xL in platelets; format: cell-based, human; settings: 37.5 uM H89 or 10 uM forskin, 160 min
# Experimental: Next, we further explored the mechanism by which PKA inhibits induction of platelet apoptosis. At room temperature, 3×10^8/mL washed platelets were incubated with different concentration gradients of H89 or the DMSO internal reference for 160 min. The platelets were lysed on ice for 30 min with an equal volume of lysis buffer. The product was electrophoretically separated by SDS-PAGE to obtain protein fragments of different sizes. The protein fragments were blocked in skim milk powder for one hour and then the primary antibody was added for incubation. […] The washed platelets were pretreated with 37.5 uM H89, 10 uM forskin and the DMSO internal reference respectively for 160 min at room temperature. Cytoplasmic proteins (FIG. 8B) and mitochondrial proteins (FIG. 8D) were extracted from the platelets, respectively. The interest proteins were detected by western blot. The amount of the interest proteins was analyzed by Image J software. Four experiments were counted to show the results in mean±standard deviation. After lysis, the pre-treated platelets were centrifuged at 17,000 g for 10 min at 4° C. The obtained supernatant was incubated with the corresponding antibody for precipitation overnight, and after incubation with protein A/G+ agarose beads at 4° C. for 2 hours, the beads were eluted for protein hybridization (FIG. 8C).
# caspase-3 = assay: Western blot of caspase-3, gelsolin and caspase-3 activity in platelets; format: cell-based, human; settings: different concentrations of H89, 22° C., 30 min
# Experimental: Washed platelets were incubated with different concentrations of H89 (25 μM, 50 μM, and 100 μM) or negative control (DMSO) at room temperature for 10 min. The reaction was stopped by the addition of 2× cell lysis buffer (containing 2 mM PMSF, 2 mM NaF, 2 mM Na3VO4, and protease inhibitor), and the platelets were lysed on ice, and sampled. The samples were tested for expression of the corresponding proteins by Western blotting.
# as §1
# stored platelets = assay: Clearance of stored platelets in the body; settings: in vivo
# From the text: In addition to apoptosis, there are other changes in storage damage that result in the clearance of stored platelets in the body. Therefore, we investigated whether PKA activation protects platelet from apoptosis while preventing the stored platelets from being cleared.
structure (smiles),measurement,setting,value
Cc1[nH]c(=O)c(C#N)cc1-c1ccncc1 [milrinone],platelet counts in peripheral blood of mice,"platelets; milrinone 1 mg/kg tail vein, R300 0.1 mg/kg i.p. after 10 min, vs NS",significantly increased
O=S(=O)(c1cccc2cnccc12)N1CCCNCC1 [Fasudil],platelet apoptosis,washed platelets [1],can Promote
"CCCCC[C@H](O)/C=C/[C@H]1[C@H](O)CC(=O)[C@@H]1C/C=C\CCCC(=O)O [PGE2, prostaglandin E2]",platelet counts versus NS group at 30 min,platelets,has statistic difference
"Cn1c(=O)c2[nH]cnc2n(C)c1=O [Aminophylline, aminophylline]",platelet clearance in vivo,"platelets; aminophylline 0.24 mmol/L, R300 0.1 μg/g after 10 min",can Inhibit
"O=S(=O)(NCCNCC=Cc1ccc(Br)cc1)c1cccc2cnccc12 [H89, N-[2-((p-bromocinnamyl)amino)ethyl]-5-isoquinoline sulfonamide]","ΔΨm depolarization in platelets, time dependence",washed platelets [2],in a time-dependent manner
same,"mitochondrial membrane potential (ΔΨm) depolarization in platelets, dose dependence","washed platelets [2]; H89 0, 12.5, 25, 37.5, 50 μM, 22° C., 160 min",dose-dependently induced
same,"typical apoptotic morphological changes (membrane vesicles, pseudopods, shrinkage, degranulation)",washed platelets [3],dose-dependently induce
same,forward scatter (FSC) of GPIIb/IIIa-positive platelets (shrinkage),washed platelets [4],decrease
same,Bel-xL protein on the mitochondrial membrane,BAD position 155,decrease
same,co-immunoprecipitation of Bel-xL and BAD,BAD position 155,significantly reduced
same,phosphorylation of serine at the BAD position 155,BAD position 155; room temperature,decreased
same,activation of caspase-3,caspase-3,dose-dependently induced
same,digestion of caspase-3 substrate gelsolin,caspase-3,dose-dependently induced
same,clearance of stored platelets by the body,stored platelets,speeds up the clearance
"Nc1ncnc2c1ncn2[C@@H]1O[C@@H]2COP(=O)(O)O[C@H]2[C@H]1O [cAMP, cyclic adenosine monophosphate]",platelet counts versus NS group at 30 min,platelets,has statistic difference
